# Where “and” joins values, the source holds several entries; their conditions need not be identical. Equal entries are not always repeated. Where two headings read alike, the source gives them in different places.
# What was measured:
# Assay in all cases: Inside-out patch-clamp inhibition of CFTR current by Inh-172
# Format in all cases: cell-based
# [1] = target: T1, T1142I-CFTR (Homo sapiens, UniProt P13569, T1142I); conditions: for inhibition at 0.1 µM: 100 nM Inh-172; for inhibition at 0.5 µM: 500 nM Inh-172; for inhibition at 1 µM: 1000 nM Inh-172; for inhibition at 5 µM: 5000 nM Inh-172; for inhibition at 10 µM: 10000 nM Inh-172
# T1 construct: expressed in transfected cells; host or cells: CHO cells, pcDNA plasmid
# [2] = target: T2, T1142A-CFTR (Homo sapiens, UniProt P13569, T1142A)
# T2 construct: expressed in transfected cells; host or cells: CHO cells, pcDNA plasmid
# [3] = target: T3, K95A-CFTR (Homo sapiens, UniProt P13569, K95A)
# T3 construct: expressed in transfected cells; host or cells: CHO cells, pcDNA plasmid
# [4] = target: T4, W1145A-CFTR (Homo sapiens, UniProt P13569, W1145A)
# T4 construct: expressed in transfected cells; host or cells: CHO cells, pcDNA plasmid
# [5] = target: T5, p-hTMD1-p-CFTR (pig CFTR with human CFTR's TMD1) (Sus scrofa, UniProt Q6PQZ2, A115E/A228G/F12V/H39Q/I11V/I421T/I87F/K242R/K407E/L215I/L315F/L328I/M332I/N256S/N426D/P145L/S418N/S41P/S43V/S445N/T209A/V125I/V231I)
# T5 construct: expressed in transfected cells; host or cells: CHO cells, pcDNA plasmid
# [6] = read-out: percent inhibition of current, Mean
# [7] = read-out: percent inhibition of current, individual cell
# [8] = 100 nM Inh-172, read-out: percent inhibition of current, Mean
# [9] = 500 nM Inh-172, read-out: percent inhibition of current, Mean
# [10] = 1000 nM Inh-172, read-out: percent inhibition of current, Mean
# [11] = 5000 nM Inh-172, read-out: percent inhibition of current, Mean
# [12] = 5000 nM Inh-172, read-out: percent inhibition of current, individual cell
# [13] = 10000 nM Inh-172, read-out: percent inhibition of current, Mean
# [14] = 10000 nM Inh-172, read-out: percent inhibition of current, individual cell
# [15] = 1000 nM Inh-172, read-out: percent inhibition of current, individual cell
# [16] = 500 nM Inh-172, read-out: percent inhibition of current, individual cell
# T5 sequence (Q6PQZ2 1-1482 with the stated changes): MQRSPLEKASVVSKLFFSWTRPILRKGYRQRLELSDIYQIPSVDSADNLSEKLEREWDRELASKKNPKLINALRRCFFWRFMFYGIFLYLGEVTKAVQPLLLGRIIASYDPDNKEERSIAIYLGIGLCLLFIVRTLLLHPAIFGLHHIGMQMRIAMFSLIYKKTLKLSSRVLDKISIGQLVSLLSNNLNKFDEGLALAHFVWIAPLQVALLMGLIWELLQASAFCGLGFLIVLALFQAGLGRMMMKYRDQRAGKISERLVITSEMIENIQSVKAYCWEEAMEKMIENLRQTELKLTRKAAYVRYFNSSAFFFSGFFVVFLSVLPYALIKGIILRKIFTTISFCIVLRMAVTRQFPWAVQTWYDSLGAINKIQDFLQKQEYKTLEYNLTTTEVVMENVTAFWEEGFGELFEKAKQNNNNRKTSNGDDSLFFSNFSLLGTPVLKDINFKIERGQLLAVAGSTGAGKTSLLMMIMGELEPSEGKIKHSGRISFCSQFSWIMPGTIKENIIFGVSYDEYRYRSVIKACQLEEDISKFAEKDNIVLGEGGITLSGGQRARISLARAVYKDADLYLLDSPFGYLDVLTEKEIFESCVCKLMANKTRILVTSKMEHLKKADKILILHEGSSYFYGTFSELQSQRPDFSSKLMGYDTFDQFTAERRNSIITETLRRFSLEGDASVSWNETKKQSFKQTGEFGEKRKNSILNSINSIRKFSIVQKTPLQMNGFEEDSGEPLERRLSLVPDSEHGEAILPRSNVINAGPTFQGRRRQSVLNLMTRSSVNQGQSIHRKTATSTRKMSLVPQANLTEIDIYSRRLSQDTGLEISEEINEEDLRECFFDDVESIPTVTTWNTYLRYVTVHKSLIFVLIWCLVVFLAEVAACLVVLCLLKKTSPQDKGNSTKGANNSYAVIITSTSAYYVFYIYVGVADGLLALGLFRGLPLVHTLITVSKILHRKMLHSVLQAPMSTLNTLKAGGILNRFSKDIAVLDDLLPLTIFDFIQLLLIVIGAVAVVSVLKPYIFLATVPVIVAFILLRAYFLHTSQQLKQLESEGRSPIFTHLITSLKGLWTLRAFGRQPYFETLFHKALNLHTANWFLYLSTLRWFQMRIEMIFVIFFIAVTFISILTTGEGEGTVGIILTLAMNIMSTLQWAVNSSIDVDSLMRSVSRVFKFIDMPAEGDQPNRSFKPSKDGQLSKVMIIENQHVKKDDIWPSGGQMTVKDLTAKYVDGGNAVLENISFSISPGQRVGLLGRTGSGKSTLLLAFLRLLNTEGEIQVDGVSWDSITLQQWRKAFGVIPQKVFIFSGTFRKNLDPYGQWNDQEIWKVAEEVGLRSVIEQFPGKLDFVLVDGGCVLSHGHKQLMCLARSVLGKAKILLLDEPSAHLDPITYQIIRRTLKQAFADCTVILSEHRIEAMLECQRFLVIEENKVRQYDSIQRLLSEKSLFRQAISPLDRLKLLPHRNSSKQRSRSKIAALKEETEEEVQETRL
# T1 sequence (P13569 whole entry T1142I): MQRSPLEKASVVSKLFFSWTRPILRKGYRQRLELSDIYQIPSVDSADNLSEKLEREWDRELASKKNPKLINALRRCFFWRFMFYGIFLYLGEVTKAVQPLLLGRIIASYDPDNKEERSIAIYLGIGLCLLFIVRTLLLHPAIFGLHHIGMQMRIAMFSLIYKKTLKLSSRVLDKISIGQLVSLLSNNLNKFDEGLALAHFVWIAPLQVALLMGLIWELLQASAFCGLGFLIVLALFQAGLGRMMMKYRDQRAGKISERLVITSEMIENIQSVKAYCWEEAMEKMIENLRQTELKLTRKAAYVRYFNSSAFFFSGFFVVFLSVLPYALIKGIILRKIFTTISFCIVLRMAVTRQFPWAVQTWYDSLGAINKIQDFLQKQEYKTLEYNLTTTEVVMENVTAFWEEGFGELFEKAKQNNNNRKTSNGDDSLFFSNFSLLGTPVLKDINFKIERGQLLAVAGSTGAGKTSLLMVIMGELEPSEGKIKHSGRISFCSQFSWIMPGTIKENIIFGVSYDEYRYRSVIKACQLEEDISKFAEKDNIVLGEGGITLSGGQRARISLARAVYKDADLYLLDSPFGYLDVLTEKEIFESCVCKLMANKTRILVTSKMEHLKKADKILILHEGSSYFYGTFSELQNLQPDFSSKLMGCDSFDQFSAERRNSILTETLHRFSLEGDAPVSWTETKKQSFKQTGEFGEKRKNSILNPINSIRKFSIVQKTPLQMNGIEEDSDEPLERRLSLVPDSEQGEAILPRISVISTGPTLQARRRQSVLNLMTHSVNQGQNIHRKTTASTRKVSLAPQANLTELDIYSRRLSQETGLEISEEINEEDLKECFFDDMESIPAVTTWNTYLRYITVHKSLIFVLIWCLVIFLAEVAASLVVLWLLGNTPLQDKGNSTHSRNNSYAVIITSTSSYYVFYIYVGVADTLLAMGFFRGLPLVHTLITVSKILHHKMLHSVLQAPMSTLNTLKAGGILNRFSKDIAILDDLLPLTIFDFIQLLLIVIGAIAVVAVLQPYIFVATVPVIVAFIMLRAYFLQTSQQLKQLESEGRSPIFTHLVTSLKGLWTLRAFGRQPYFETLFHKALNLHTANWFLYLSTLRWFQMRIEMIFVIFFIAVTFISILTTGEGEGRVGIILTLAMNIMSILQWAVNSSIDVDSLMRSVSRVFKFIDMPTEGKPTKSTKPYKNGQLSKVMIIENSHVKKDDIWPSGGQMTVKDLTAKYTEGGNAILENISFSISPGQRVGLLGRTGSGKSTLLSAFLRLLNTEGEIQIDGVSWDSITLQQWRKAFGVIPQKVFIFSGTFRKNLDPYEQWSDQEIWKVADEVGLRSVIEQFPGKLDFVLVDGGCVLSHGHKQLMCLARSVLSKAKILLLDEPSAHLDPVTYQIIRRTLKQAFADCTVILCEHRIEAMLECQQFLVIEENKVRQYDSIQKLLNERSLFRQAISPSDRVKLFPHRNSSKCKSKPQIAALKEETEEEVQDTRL
# T2 sequence (P13569 whole entry T1142A): as the sequence (P13569 whole entry T1142I) above, with I1142A counted along it
# T4 sequence (P13569 whole entry W1145A): as the sequence (P13569 whole entry T1142I) above, with I1142T, W1145A counted along it
# T3 sequence (P13569 whole entry K95A): as the sequence (P13569 whole entry T1142I) above, with K95A, I1142T counted along it
structure (smiles),measurement,setting,value
"O=C(O)c1ccc(/C=C2\SC(=S)N(c3cccc(C(F)(F)F)c3)C2=O)cc1 [Inh-172, CFTRinh-172]",inhibition at 0.1 µM,[1]; [6],7.2%
same,inhibition at 0.1 µM,[1]; [7],5%
same,inhibition at 0.5 µM,[1]; [6],22.5%
same,inhibition at 0.5 µM,[1]; [7],22%
same,inhibition at 1 µM,[1]; [6],39.3%
same,inhibition at 1 µM,[1]; [7],38%
same,inhibition at 5 µM,[1]; [6],78.3%
same,inhibition at 5 µM,[1]; [7],78%
same,inhibition at 10 µM,[1]; [6],90.7%
same,inhibition at 10 µM,[1]; [7],90%
same,Hill Coefficient,[1]; T1142I,1.12 ± 0.05
same,IC50,[1]; T1142I,1490 ± 70 nM
same,"percent inhibition of current, individual cell",[2]; 100 nM Inh-172,28.0 and 24.0 and 52.0 and 14.0 and 42.0
same,inhibition at 0.1 µM,[2]; [8],31.3%
same,"percent inhibition of current, individual cell",[2]; 500 nM Inh-172,61.0 and 67.0 and 78.0 and 44.0 and 66.0
same,inhibition at 0.5 µM,[2]; [9],63.2%
same,"percent inhibition of current, individual cell",[2]; 1000 nM Inh-172,74.0 and 70.0 and 87.0 and 60.0 and 78.0
same,inhibition at 1 µM,[2]; [10],73.8%
same,"percent inhibition of current, individual cell",[2]; 5000 nM Inh-172,93.0 and 96.0 and 84.0
same,inhibition at 5 µM,[2]; [11],91.2%
same,inhibition at 5 µM,[2]; [12],90%
same,"percent inhibition of current, individual cell",[2]; 10000 nM Inh-172,98.0 and 92.0
same,inhibition at 10 µM,[2]; [13],96.2%
same,inhibition at 10 µM,[2]; [14],97%
same,Hill Coefficient,[2]; T1142A,0.81 ± 0.02
same,IC50,[2]; T1142A,270 ± 10 nM
same,"percent inhibition of current, individual cell",[3]; 100 nM Inh-172,10.0 and 13.0 and 19.0 and 9.0 and 7.0 and 15.0
same,inhibition at 0.1 µM,[3]; [8],12.2%
same,inhibition at 0.5 µM,"[3]; 0.5 µM Inh-172, read-out: K95A-CFTR current inhibited",~40%
same,"percent inhibition of current, individual cell",[3]; 500 nM Inh-172,23.0 and 38.0 and 46.0 and 31.0 and 29.0 and 42.0
same,inhibition at 0.5 µM,[3]; [9],34.8%
same,"percent inhibition of current, individual cell",[3]; 1000 nM Inh-172,58.0 and 62.0 and 47.0 and 59.0
same,inhibition at 1 µM,[3]; [10],55.8%
same,inhibition at 1 µM,[3]; [15],51%
same,"percent inhibition of current, individual cell",[3]; 5000 nM Inh-172,88.0 and 84.0 and 81.0 and 85.0
same,inhibition at 5 µM,[3]; [11],84.2%
same,inhibition at 5 µM,[3]; [12],78%
same,"percent inhibition of current, individual cell",[3]; 10000 nM Inh-172,95.0 and 94.0 and 93.0 and 90.0
same,inhibition at 10 µM,[3]; [13],92.3%
same,inhibition at 10 µM,[3]; [14],89%
same,Hill Coefficient,[3]; K95A,0.98 ± 0.05
same,IC50,[3]; K95A,850 ± 50 nM
same,IC50,"[3]; K95A, earlier manuscript version, peer review file",852 nM
same,increase of IC50 by K95A mutation vs WT,[3]; cho cells inside-out patch,10 fold
same,"percent inhibition of current, individual cell",[4]; 100 nM Inh-172,2 and 8 and 0.5
same,inhibition at 0.1 µM,[4]; [8],3.5%
same,"percent inhibition of current, individual cell",[4]; 500 nM Inh-172,32 and 33
same,inhibition at 0.5 µM,[4]; [9],37.3%
same,inhibition at 0.5 µM,[4]; [16],42%
same,"percent inhibition of current, individual cell",[4]; 1000 nM Inh-172,60 and 69 and 44 and 52 and 49
same,inhibition at 1 µM,[4]; [10],54.8%
same,"percent inhibition of current, individual cell",[4]; 5000 nM Inh-172,89 and 75 and 91 and 80
same,inhibition at 5 µM,[4]; [11],85%
same,inhibition at 5 µM,[4]; [12],90%
same,"percent inhibition of current, individual cell",[4]; 10000 nM Inh-172,86 and 88
same,inhibition at 10 µM,[4]; [13],89.8%
same,inhibition at 10 µM,[4]; [14],95%
same,Hill Coefficient,[4]; W1145A,1.08 ± 0.12
same,IC50,[4]; W1145A,880 ± 90 nM
same,"percent inhibition of current, individual cell",[5]; 100 nM Inh-172,4 and 3 and 1
same,inhibition at 0.1 µM,[5]; [8],2.7%
same,"percent inhibition of current, individual cell",[5]; 500 nM Inh-172,17 and 15
same,inhibition at 0.5 µM,[5]; [9],17.3%
same,inhibition at 0.5 µM,[5]; [16],20%
same,"percent inhibition of current, individual cell",[5]; 1000 nM Inh-172,30 and 24
same,inhibition at 1 µM,[5]; [10],32%
same,inhibition at 1 µM,[5]; [15],42%
same,"percent inhibition of current, individual cell",[5]; 5000 nM Inh-172,67 and 68
same,inhibition at 5 µM,[5]; [11],68.7%
same,inhibition at 5 µM,[5]; [12],71%
same,"percent inhibition of current, individual cell",[5]; 10000 nM Inh-172,83 and 81
same,inhibition at 10 µM,[5]; [13],83.3%
same,inhibition at 10 µM,[5]; [14],86%
same,Hill Coefficient,[5]; p-hTMD1-p,1.03 ± 0.03
same,IC50,[5]; p-hTMD1-p,2210 ± 70 nM

# Source: publication PMC11303713, “Allosteric inhibition of CFTR gating by CFTRinh-172 binding in the pore” (Nature Communications, 2024)
